These results are taken from US20250319053A1, “INHIBITORS OF THE PEPTIDYL-PROLYL CIS/TRANS ISOMERASE (PIN1), COMBINATIONS AND USES THEREOF” (DANA-FARBER CANCER INSTITUTE, INC., priority 2021, published 2025).

In one experiment the test system is PDAC tumors in GDA mice. The experiment is described as follows: KPC mouse-derived orthotopic allograft (GDA) mouse model. In kind it is in vivo. The procedure:
2) the KPC Genetically engineered mouse-derived orthotopic allografts (GDA) mouse model (Hingorani et al., Cancer Cell 7, 469-483 (2005); Li et al., Comput Struct Biotechnol J 17, 498-506 (2019)). Mouse PDAC cells were established from KPC mouse pancreatic tumor tissues, followed by orthotopically injecting 1×10^6 mouse PDAC cells in 50 μL Matrigel (356231, Coaning) into the pancreas of female 8 week-old syngeneic immunocompetent C57BL/6 mice (Jackson Laboratories). 3) PDAC Patient-derived Tumor orthotopic xenografted (PDTX) mouse model (Gilles et al., Clin Cancer Res 24, 1734-1747 (2018); Rubio-Viqueira et al., Clin Cancer Res 12, 4652-4661 (2006)). PDAC PDX tumors were obtained from Dr. Muthuswamy and Dr. Hidalgo and divided into 4×2 mm pieces, followed by xenografting orthotopically into the pancreas of female 8-week-old immunodeficient NOD.Cg-Prkdc^scid Il12rg^tm1Wjl/SzJ (NOD scid gamma; NSG) mice (Jackson Laboratories). 4) PDAC Patient-derived Organoid and CAFs orthotopic xenograft (PDOX) mouse model (Dantes et al., JCI Insight 5, 137809 (2020); (Koikawa et al., Cancer letters 425, 65-77 (2018)). 5×10^4 patient derived PDAC organoids and 5×10^4 patient derived CAFs in 50 μL of Matrigel were injected orthotopically into the pancreas of female 8 week-old immunodeficient NSG mice (Jackson Laboratories).
Briefly, all mice were randomly selected to receive treatments groups. Tumor sizes were measured by weekly palpation with electronic caliper or ultrasound, and when tumors were reached >0.5 cm, the treatment was started. Briefly, animals were placed under general anesthesia with 2%-3% isoflurane once a week. Under general anesthesia, the abdominal wall became very flaccid, and the muscle tone of the mouse was very low. The mouse was scuffed with the left hand to allow for palpation and measurement with the right hand. This allowed to detect the firm pancreatic mass by palpation, and to determine its size by electronic caliper measurements. […] In the transgenic KPC mice, where spontaneous tumor development was expected, weekly palpation was started from age 8 weeks. When the tumor by palpation after age 12 weeks could not be detected, the mice were monitored by ultrasound. Once the maximum length >0.5 cm tumor was detected, the mice were randomized to treatment, and then followed tumor growth by electronic caliper measurement. To validate the external caliper measurements, the tumor size was measured prior to euthanization of the mice and then measured the actual tumor size upon necropsy to ascertain concordance. […] To evaluate the effects of CD8+ T cell or NK1.1′ cell depletion in GDA mice, mice were treated with anti-CD8 (200 μg, i.p., twice a week, BE0117, BioXcell) (Pantelidou et al., Cancer Discov. 9, 722-37 (2019)) or anti-NK1.1 (25 μg, i.p., twice a week, BE0036, BioXcell) (Waggoner et al., Nature 481, 394-398 (2011)), or vehicle (IgG isotype control), and/or Sulfopin (40 mg/kg, i.p., every day) (Pin1i−2) or vehicle (Sulfopin diluted solution; 5% NMP, 5% Solutol, 20% DMSO), and/or anti-PD1 (200 μg, i.p., every 3-4 days, BE0146, BioXcell) or vehicle (IgG isotype control). To test Sulfopin and/or PTX and/or anti-CTLA4 combination treatment in GDA mice, mice were treated with Sulfopin (40 mg/kg, i.p., every day) (Pin1i−2) or vehicle (Sulfopin diluted solution; 5% NMP, 5% Solutol, 20% DMSO), and/or PTX (10 mg/kg i.p., weekly) or vehicle (PTX diluted solution; 10% DMSO, 40% PEG300, 5% Tween 80, 45% Saline), and/or anti-CTLA-4 (250 μg, i.p., every 3-4 days, BE0032, BioXcell) or vehicle (IgG isotype control).

For another experiment, the system named is human PDAC organoids. The experiment is described as follows: Organoid apoptosis assay (caspase 3/7) with GEM or 5-FU. It counts as cell-based. The procedure:
The organoids were isolated from Matrigel using collagenase, and seed Matrigel coated 96 well plate, and then treated with control (PBS) or GEM, or control (DMSO) or 5-FU, followed by assaying organoid apoptosis using fluorescent caspase 3/7 and live-cell time lapse imaging for 24 hr. At the start of coculture, a green-fluorescent caspase 3/7 probe reagent (R37111, Invitrogen) and Hoechst (135102, Invitrogen) was added to visualize cells undergoing apoptosis. Apoptotic organoids were monitored by time lapse imaging using BZ-X800 fluorescence microscope (KEYENCE) and quantified using BZ-X800 analyzer (ver. 1.1.1.8, KEYENCE). […] Synergy scores were calculated by Synergyfinder ver 2 (synergyfinder.fimm.fi/) (Ianevski et al., Nucleic Acids Res. 48 IW1), […]-[…] (2020)).

Where [1] appears, read: GDA mice, FIG. 9A, GEM 20 mg/kg, n=6, vehicle 34 days.

Regarding `Nc1ccn([C@@H]2O[C@H](CO)[C@@H](O)C2(F)F)c(=O)n1` [GEM, gemcitabine, reference compound], the Median survival in the experiment with PDAC tumors in GDA mice (setting [1]) is reported as 42 days. The “organoid apoptosis, agent alone” value with human PDAC organoids (GEM at 25 nM for 24 hrs) was “neither Pin1i nor GEM alone had obvious effect”.

In the case of `CC(C)(C)CN(C(=O)CCl)C1CCS(=O)(=O)C1` (stereo not shown) [Pin1i−2, sulfopin], the “desmoplastic (fibrotic) and immunosuppressive TME” value in the experiment on PDAC tumors in GDA mice (GDA mice) is “potently reduce the fibrotic TME”. Also, the “CAF activation (IF for αSMA or PDGFRα)” value in the experiment on PDAC tumors in GDA mice (GDA mice, 4 weeks) was “significantly reduced”. The “collagen deposition (Sirius Red staining)” value in the experiment with PDAC tumors in GDA mice (GDA mice, 4 weeks) was “significantly reduced”. Also, the Median survival with PDAC tumors in GDA mice (setting [1]) is 56 days; in the experiment with PDAC tumors in GDA mice (GDA mice, FIG. 9I, treated up to 150 days, GEM 10 mg/kg weekly, αPD1, n=8, vehicle 36.5 days) it was 54 days. Besides, in the experiment with PDAC tumors in GDA mice (overt tumor-bearing GDA mice), the tumor growth result is listed as “significantly reduced tumor growth”. In addition, the “apoptosis in WT organoids” value in the experiment on human PDAC organoids (Pin1i−2 at 5 μM 3 days, then GEM at 25 nM for 24 hrs) is on record as “induced apoptosis in WT organoids”. In addition, the GEM-mediated organoid apoptosis entry in the experiment on human PDAC organoids (pre-treated with Pin1i−1 at 10 μM or Pin1i−2 at 5 μM for 72 hrs, then GEM at 25 nM for 24 hrs) is “greatly potentiated GEM-mediated organoid apoptosis”.
